# Results: ChEMBL document CHEMBL4483862, “Open-source discovery of chemical leads for next-generation chemoprotective antimalarials” (2018)
# System: Plasmodium berghei
# Experiment: Luciferase/luciferin-expressing antifolate-resistant parasites were used to infect a culture of HepG2 cells that were pre-incubated with compounds. Infected hepatocytes emit light due to the luciferase reaction. Assay results are presented as the percent inhibition of light emission compared to control. […]
# Format: functional
# Details: sporozoite; for IC90: read-out: LUCIFERASE INFECTION ASSAY - IC90
# [1] = read-out: LUCIFERASE INFECTION ASSAY - IC50
compound,measurement,setting,value
CC(C)c1noc2ncc(C(=O)Nc3ccc(Cl)c(C(F)(F)F)c3)cc12,IC50,"HEPG2TOX_HILL_SLOPE 7.95, HEPG2TOX_R_SQUARED 0.873, PBLUC_HILL_SLOPE 16.7, PBLUC_R_SQUARED 0.65, read-out: LUCIFERASE INFECTION ASSAY - IC50",8.58 µM
same,IC90,,9.79 µM
CC(C)c1ccc(-n2c(SCc3ccc(Cl)cc3)nnc2-c2ccc(C(C)(C)C)cc2)cc1,IC50,[1],> 6.93 µM
same,IC90,,> 6.93 µM
CCC1(CC)CC(=O)N(CC(O)COc2ccc(C(C)(C)C)cc2)C1=O (configuration not stated),IC50,"PBLUC_HILL_SLOPE 2.11, PBLUC_R_SQUARED 0.442, read-out: LUCIFERASE INFECTION ASSAY - IC50",5.07 µM
same,IC90,,> 10 µM
CC1CCc2sc(C(=O)Nc3cccc4c3C(=O)NC4)cc2C1 (configuration not stated),IC50,[1],3.61 µM
same,IC90,,4.22 µM
Cc1nn(-c2ccccc2)c(C)c1C(=O)C(=O)NC(C)c1ccc(S(N)(=O)=O)cc1 (configuration not stated),IC50,[1],> 10 µM
same,IC90,,> 10 µM
O=C(c1cc2ccccc2cc1O)N1CCN(Cc2ccc3c(c2)OCO3)CC1,IC50,"HEPG2TOX_HILL_SLOPE 11.9, HEPG2TOX_R_SQUARED 0.324, PBLUC_HILL_SLOPE 2.98, 3.06, PBLUC_R_SQUARED 0.831, 0.940, read-out: LUCIFERASE INFECTION ASSAY - IC50",4.38 µM
same,IC90,,8.06 µM
CCc1ccc(C(=O)Nc2cccc(NC(=O)c3ccccc3C)c2)cc1,IC50,"HEPG2TOX_HILL_SLOPE 1.42, HEPG2TOX_R_SQUARED 0.919, PBLUC_HILL_SLOPE 4.98, PBLUC_R_SQUARED 0.845, read-out: LUCIFERASE INFECTION ASSAY - IC50",0.735 µM
same,IC90,,1.14 µM
COc1ccc(N2C(=O)/C(=C\NC3CCCCC3C)c3ccccc3C2=O)cc1OC (configuration not stated),IC50,[1],> 10 µM
same,IC90,,> 10 µM
Cc1cc2ncc(-c3ccnc(SCc4cccc(Cl)c4)n3)c(C)n2n1,IC50,"PBLUC_HILL_SLOPE 3.9, PBLUC_R_SQUARED 0.625, read-out: LUCIFERASE INFECTION ASSAY - IC50",4.91 µM
same,IC90,,8.63 µM
CCOC(=O)N1CCC(N/C=C(\C#N)S(=O)(=O)c2ccc(Cl)cc2)CC1,IC50,"PBLUC_HILL_SLOPE 8.69, PBLUC_R_SQUARED 0.709, read-out: LUCIFERASE INFECTION ASSAY - IC50",2.55 µM
same,IC90,,3.29 µM
Cc1nc(N2CCC(C)CC2)nc2c1C(=O)CC(/C=C/c1ccccc1)C2 (configuration not stated),IC50,[1],> 9.13 µM
same,IC90,,> 9.13 µM
Cc1cc(C)c(NC(=O)CNc2nn3cc(-c4ccccc4)nc3s2)c(C)c1,IC50,"PBLUC_HILL_SLOPE 1.1, PBLUC_R_SQUARED 0.432, read-out: LUCIFERASE INFECTION ASSAY - IC50",1.54 µM
same,IC90,,> 10 µM
CC(C)(C)c1cc(C(=O)NNC(=O)c2ccc(C(F)(F)F)cc2)n(Cc2ccccc2)n1,IC50,[1],> 7.42 µM
same,IC90,,> 7.42 µM
CC(N)c1csc(NC(=O)c2cccnc2Oc2ccccc2)n1 (configuration not stated),IC50,[1],3.09 µM
same,IC90,,5.22 µM
CC1C/C(=C\c2ccco2)c2nc3ccccc3c(C(=O)OCC(=O)N3CC(=O)Nc4ccccc43)c2C1 (configuration not stated),IC50,[1],> 10 µM
same,IC90,,> 10 µM
O=C(Nc1cccc(S(=O)(=O)NC2=NCCC2)c1)c1ccc2nccnc2c1,IC50,[1],> 10 µM
same,IC90,,> 10 µM
COCCNc1nc2cnc(-c3ccc4ccccc4c3)cc2n1C,IC50,"FFLUC_HILL_SLOPE 5.54, FFLUC_R_SQUARED 0.844, PBLUC_HILL_SLOPE 0.43, PBLUC_R_SQUARED 0.895, read-out: LUCIFERASE INFECTION ASSAY - IC50",0.13 µM
same,IC90,,> 10 µM
CS(=O)(=O)c1ccc(S(=O)(=O)Oc2ccc(C3CCCCC3)cc2)cc1,IC50,"HEPG2TOX_HILL_SLOPE 0.47, HEPG2TOX_R_SQUARED 0.776, PBLUC_HILL_SLOPE 1, PBLUC_R_SQUARED 0.337, read-out: LUCIFERASE INFECTION ASSAY - IC50",6.62 µM
same,IC90,,> 10 µM
CCOC(=O)c1ccc(Oc2c[nH]nc2-c2ccc(OC)cc2O)cc1,IC50,"FFLUC_HILL_SLOPE 1.78, FFLUC_R_SQUARED 0.28, read-out: LUCIFERASE INFECTION ASSAY - IC50",> 9.31 µM
same,IC90,,> 9.31 µM
Cc1cc(C)c(-c2csc(NC(=O)c3ccccc3SCC(=O)NCC3CCCCC3)n2)cc1C,IC50,"FFLUC_HILL_SLOPE 1.8, FFLUC_R_SQUARED 0.211, HEPG2TOX_HILL_SLOPE 0.456, HEPG2TOX_R_SQUARED 0.807, PBLUC_HILL_SLOPE 10.4, PBLUC_R_SQUARED 0.477, read-out: LUCIFERASE INFECTION ASSAY - IC50",4.04 µM
same,IC90,,4.99 µM
CCO/C=N/Nc1nc(C(F)(F)F)nc2c1cnn2-c1ccccc1,IC50,"FFLUC_HILL_SLOPE 12.8, FFLUC_R_SQUARED 0.468, PBLUC_HILL_SLOPE 1.59, PBLUC_R_SQUARED 0.442, read-out: LUCIFERASE INFECTION ASSAY - IC50",4.62 µM
same,IC90,,> 10 µM
Cc1cccc(NC(=O)NC(=O)CSc2ccc(S(=O)(=O)N(C)C)cn2)c1C,IC50,"FFLUC_HILL_SLOPE 22.1, FFLUC_R_SQUARED 0.241, read-out: LUCIFERASE INFECTION ASSAY - IC50",> 10 µM
same,IC90,,> 10 µM
CN(C)S(=O)(=O)c1ccc(OCCOC(=O)c2c3c(nn2-c2ccccc2)CCCC3)cc1,IC50,"FFLUC_HILL_SLOPE 11.3, FFLUC_R_SQUARED 0.368, read-out: LUCIFERASE INFECTION ASSAY - IC50",> 10 µM
same,IC90,,> 10 µM
CCOc1ccccc1C(=O)NCCc1cccc(Cl)c1,IC50,[1],> 10.9 µM
same,IC90,,> 10.9 µM
CCOC(=O)NNC(=S)Nc1ccccc1OC,IC50,[1],> 12.3 µM
same,IC90,,> 12.3 µM
c1ccn(C2CCNCC2)c1,IC50,[1],> 22 µM
same,IC90,,> 22 µM
COc1cccc(-c2cn3c(-c4cccc(O)c4)cnc3cn2)c1F,IC50,"PBLUC_HILL_SLOPE 18.9, PBLUC_R_SQUARED 0.523, read-out: LUCIFERASE INFECTION ASSAY - IC50",3.28 µM
same,IC90,,3.69 µM
CCn1c2ccccc2c2cc(NC(=O)CN3C(=O)NC4(CCCc5ccccc54)C3=O)ccc21 (configuration not stated),IC50,"FFLUC_HILL_SLOPE 13.4, FFLUC_R_SQUARED 0.411, HEPG2TOX_HILL_SLOPE 9.13, HEPG2TOX_R_SQUARED 0.498, PBLUC_HILL_SLOPE 3.53, PBLUC_R_SQUARED 0.448, read-out: LUCIFERASE INFECTION ASSAY - IC50",5.21 µM
same,IC90,,9.72 µM
COc1ccccc1C(=O)c1cnc(Nc2cccc(-c3ccccc3)c2)[nH]1,IC50,"HEPG2TOX_HILL_SLOPE 9.5, HEPG2TOX_R_SQUARED 0.78, PBLUC_HILL_SLOPE 12, PBLUC_R_SQUARED 0.218, read-out: LUCIFERASE INFECTION ASSAY - IC50",8.03 µM
same,IC90,,> 8.93 µM
CCOc1ccc(S(=O)(=O)CC2=NCCc3cc(OC)c(OC)cc32)cc1,IC50,"HEPG2TOX_HILL_SLOPE 1.55, HEPG2TOX_R_SQUARED 0.854, PBLUC_HILL_SLOPE 1.98, PBLUC_R_SQUARED 0.428, read-out: LUCIFERASE INFECTION ASSAY - IC50",1.78 µM
same,IC90,,5.39 µM
Cc1ccc2nc(NC(=O)C(C)Oc3ccccc3)c(C(=O)NC3CCCC3)n2c1 (configuration not stated),IC50,"PBLUC_HILL_SLOPE 4.38, PBLUC_R_SQUARED 0.362, read-out: LUCIFERASE INFECTION ASSAY - IC50",4.21 µM
same,IC90,,6.95 µM
COc1ccc(COC(=O)Cc2c(C)[nH]c(-c3ccccn3)nc2=O)cc1OC,IC50,"PBLUC_HILL_SLOPE 4.54, PBLUC_R_SQUARED 0.664, read-out: LUCIFERASE INFECTION ASSAY - IC50",5.01 µM
same,IC90,,8.13 µM
Cc1ccnc(NC(=O)C2CC(=O)N(c3ccc(C)c(C)c3)C2)c1 (configuration not stated),IC50,"HEPG2TOX_HILL_SLOPE 1.86, HEPG2TOX_R_SQUARED 0.878, PBLUC_HILL_SLOPE 11.1, PBLUC_R_SQUARED 0.462, read-out: LUCIFERASE INFECTION ASSAY - IC50",3.31 µM
same,IC90,,4.04 µM
CCC(C)(C)NS(=O)(=O)c1ccc(-n2ncc(Cl)c(Cl)c2=O)cc1,IC50,"HEPG2TOX_HILL_SLOPE 13.4, HEPG2TOX_R_SQUARED 0.912, PBLUC_HILL_SLOPE 13.3, PBLUC_R_SQUARED 0.601, read-out: LUCIFERASE INFECTION ASSAY - IC50",1.23 µM
same,IC90,,1.45 µM
CNc1nc2cnc(-c3ccccc3C)cc2n1-c1cccc(F)c1,IC50,[1],> 10 µM
same,IC90,,> 10 µM
Cc1cc(C(=O)Nc2nc3ccccc3s2)c(C)n1C(C)C,IC50,[1],0.121 µM
same,IC90,,0.946 µM
O=C(Nc1ccc2c(c1)OCO2)c1csc(C(O)c2cccc(C(F)(F)F)c2)n1 (configuration not stated),IC50,[1],> 10 µM
same,IC90,,> 10 µM
Cc1ccc(-c2nnc(NC(=O)c3cccc(S(=O)(=O)N4CCc5ccccc54)c3)[nH]2)cc1,IC50,[1],8.49 µM
same,IC90,,> 10 µM
CC(C)c1ccc(NC(=O)CSc2nccc(-c3csc(COc4ccccc4Cl)n3)n2)cc1,IC50,[1],> 6.46 µM
same,IC90,,> 6.46 µM
Cc1cc(C)c(CSCCNC(=O)Nc2ccccc2)c(C)c1,IC50,"PBLUC_HILL_SLOPE 3.02, PBLUC_R_SQUARED 0.314, read-out: LUCIFERASE INFECTION ASSAY - IC50",4.91 µM
same,IC90,,> 10 µM
CCCC(=O)Nc1ccc(-c2csc(NC(=O)c3cc(C)oc3C)n2)cc1,IC50,[1],> 10 µM
same,IC90,,> 10 µM
Cc1ccc(/C=N/Nc2nn3c(=O)c4ccccc4nc3c3ccccc23)o1,IC50,"HEPG2TOX_HILL_SLOPE 9.29, HEPG2TOX_R_SQUARED 0.957, PBLUC_HILL_SLOPE 5.5, PBLUC_R_SQUARED 0.698, read-out: LUCIFERASE INFECTION ASSAY - IC50",5.7 µM
same,IC90,,8.5 µM
CC(Sc1nnc(-c2ccc(C(C)(C)C)cc2)o1)C(=O)NCc1ccccc1Cl (configuration not stated),IC50,"PBLUC_HILL_SLOPE 1.93, PBLUC_R_SQUARED 0.876, read-out: LUCIFERASE INFECTION ASSAY - IC50",4.14 µM
same,IC90,,> 10 µM
Cc1csc(NC(=O)Nc2ccc(C(F)(F)F)cc2)c1Cl,IC50,"HEPG2TOX_HILL_SLOPE 12, HEPG2TOX_R_SQUARED 0.807, PBLUC_HILL_SLOPE 11.1, PBLUC_R_SQUARED 0.14, read-out: LUCIFERASE INFECTION ASSAY - IC50",3.63 µM
same,IC90,,4.43 µM
O=C1NCCN1CCNc1nn2c(-c3cccc(OC(F)(F)F)c3)cnc2s1,IC50,[1],> 8 µM
same,IC90,,> 8 µM
COc1ccc(Cl)cc1NC(=O)CN(C)c1nc(-c2cccnc2)nc2sc3c(c12)CCCC3,IC50,[1],> 10 µM
same,IC90,,> 10 µM
